Experimental data as given in patent publication US8362027B2, “Iontophoretic preparation for treatment of breast cancer and/or mastitis” (Kowa Co., Ltd., priority 2005, dated 2013).
Where two headings read alike, the source gives them in different places.

Columns and labels:
[1] = not given; remark: listed apart in the source
[2] = nipple skin (corrected to nipple part only), no application of electric potential, 60 min
[3] = nipple skin (corrected to nipple part only), no application of electric potential, 120 min
[4] = nipple skin (corrected to nipple part only), no application of electric potential, 180 min
[5] = nipple skin, no application of electric potential

SMILES: O=P1(N(CCCl)CCCl)NCCCO1 (stereo not shown) [cyclophosphamide]
- permeated amount of cyclophosphamide (nipple skin (corrected to nipple part only), application of electric potential (0.1 mA/cm^2), 0 min): 0.0 μg/cm^2
- permeated amount of cyclophosphamide (nipple skin (corrected to nipple part only), application of electric potential (0.1 mA/cm^2), 30 min): 34.3 μg/cm^2
- permeated amount of cyclophosphamide (nipple skin (corrected to nipple part only), application of electric potential (0.1 mA/cm^2), 60 min): 123.2 μg/cm^2
- permeated amount of cyclophosphamide (nipple skin (corrected to nipple part only), application of electric potential (0.1 mA/cm^2), 90 min): 125.3 μg/cm^2
- permeated amount of cyclophosphamide (nipple skin (corrected to nipple part only), application of electric potential (0.1 mA/cm^2), 120 min): 121.4 μg/cm^2
- permeated amount of cyclophosphamide (nipple skin (corrected to nipple part only), application of electric potential (0.1 mA/cm^2), 150 min): 120.4 μg/cm^2
- permeated amount of cyclophosphamide (nipple skin (corrected to nipple part only), application of electric potential (0.1 mA/cm^2), 180 min): 123.1 μg/cm^2
- permeated amount of cyclophosphamide (nipple skin (corrected to nipple part only), no application of electric potential, 0 min): 0.0 μg/cm^2
- permeated amount of cyclophosphamide (nipple skin (corrected to nipple part only), no application of electric potential, 30 min): 24.9 μg/cm^2
- permeated amount of cyclophosphamide [2]: 2.0 μg/cm^2
- permeated amount of cyclophosphamide (nipple skin (corrected to nipple part only), no application of electric potential, 90 min): 6.9 μg/cm^2
- permeated amount of cyclophosphamide [3]: 20.2 μg/cm^2
- permeated amount of cyclophosphamide (nipple skin (corrected to nipple part only), no application of electric potential, 150 min): 1.4 μg/cm^2
- permeated amount of cyclophosphamide [4]: 6.9 μg/cm^2
- Increase rate of permeated amount after 180 minutes with respect to normal skin without application of electric potential (nipple skin, application of electric potential (0.1 mA/cm^2)): 7.1
- Increase rate of permeated amount after 180 minutes with respect to normal skin without application of electric potential [5]: 0.4
- change of permeability of cyclophosphamide (nipple without electric potential, compared with normal skin): not enhanced
- increase of permeability of cyclophosphamide (nipple, electric potential (0.1 mA/cm^2), vs normal skin without potential): about 7.1 times
- Increase rate of permeated amount after 180 minutes with respect to normal skin without application of electric potential (normal skin, application of electric potential (0.1 mA/cm^2)): 0.9
- permeated amount of cyclophosphamide (normal skin, application of electric potential (0.1 mA/cm^2), 0 min, donor 25 mM, pH 3): 0.0 μg/cm^2
- permeated amount of cyclophosphamide (normal skin, application of electric potential (0.1 mA/cm^2), 30 min, donor 25 mM, pH 3): 13.4 μg/cm^2
- permeated amount of cyclophosphamide (normal skin, application of electric potential (0.1 mA/cm^2), 60 min, donor 25 mM, pH 3): 13.9 μg/cm^2
- permeated amount of cyclophosphamide (normal skin, application of electric potential (0.1 mA/cm^2), 90 min, donor 25 mM, pH 3): 13.7 μg/cm^2
- permeated amount of cyclophosphamide (normal skin, application of electric potential (0.1 mA/cm^2), 120 min, donor 25 mM, pH 3): 16.2 μg/cm^2
- permeated amount of cyclophosphamide (normal skin, application of electric potential (0.1 mA/cm^2), 150 min, donor 25 mM, pH 3): 16.3 μg/cm^2
- permeated amount of cyclophosphamide (normal skin, application of electric potential (0.1 mA/cm^2), 180 min, donor 25 mM, pH 3): 16.2 μg/cm^2
- change of permeability of cyclophosphamide (normal skin, electric potential applied (0.1 mA/cm^2), vs without potential): hardly changed
- permeated amount of cyclophosphamide (normal skin, no application of electric potential, 0 min, donor 25 mM, pH 3): 0.0 μg/cm^2
- permeated amount of cyclophosphamide (normal skin, no application of electric potential, 30 min, donor 25 mM, pH 3): 13.3 μg/cm^2
- permeated amount of cyclophosphamide (normal skin, no application of electric potential, 60 min, donor 25 mM, pH 3): 14.4 μg/cm^2
- permeated amount of cyclophosphamide (normal skin, no application of electric potential, 90 min, donor 25 mM, pH 3): 15.0 μg/cm^2
- permeated amount of cyclophosphamide (normal skin, no application of electric potential, 120 min, donor 25 mM, pH 3): 15.5 μg/cm^2
- permeated amount of cyclophosphamide (normal skin, no application of electric potential, 150 min, donor 25 mM, pH 3): 17.2 μg/cm^2
- permeated amount of cyclophosphamide (normal skin, no application of electric potential, 180 min, donor 25 mM, pH 3): 17.4 μg/cm^2

SMILES: O=c1[nH]cc(F)c(=O)[nH]1 [5-fluorouracil]
- permeated amount of 5-fluorouracil ([1]; nipple skin (corrected to nipple part only), application of electric potential (3 V), 60 min): 17.6 μg/cm^2
- permeated amount of 5-fluorouracil ([1]; nipple skin (corrected to nipple part only), application of electric potential (3 V), 120 min): 151.7 μg/cm^2
- permeated amount of 5-fluorouracil ([1]; nipple skin (corrected to nipple part only), application of electric potential (3 V), 180 min): 383.3 μg/cm^2
- permeated amount of 5-fluorouracil ([1]; nipple skin (corrected to nipple part only), application of electric potential (3 V), 240 min): 676.3 μg/cm^2
- permeated amount of 5-fluorouracil ([1]; nipple skin (corrected to nipple part only), application of electric potential (3 V), 300 min): 1032.3 μg/cm^2
- permeated amount of 5-fluorouracil ([1]; nipple skin (corrected to nipple part only), application of electric potential (3 V), 360 min): 1391.3 μg/cm^2
- permeated amount of 5-fluorouracil [1, 2]: 0.0 μg/cm^2
- permeated amount of 5-fluorouracil [1, 3]: 0.2 μg/cm^2
- permeated amount of 5-fluorouracil [1, 4]: 0.7 μg/cm^2
- permeated amount of 5-fluorouracil ([1]; nipple skin (corrected to nipple part only), no application of electric potential, 240 min): 1.6 μg/cm^2
- permeated amount of 5-fluorouracil ([1]; nipple skin (corrected to nipple part only), no application of electric potential, 300 min): 3.0 μg/cm^2
- permeated amount of 5-fluorouracil ([1]; nipple skin (corrected to nipple part only), no application of electric potential, 360 min): 5.6 μg/cm^2
- Increase rate of permeated amount after 360 minutes with respect to normal skin without application of electric potential ([1]; nipple skin, application of electric potential (3 V)): 9937.8
- Increase rate of permeated amount after 360 minutes with respect to normal skin without application of electric potential [1, 5]: 39.7
- increase of permeability of 5-fluorouracil ([1]; nipple, compared with the permeability without application of electric potential): about 40 times
- increase of permeability of 5-fluorouracil ([1]; nipple, electric potential applied (3V), vs normal skin): about 10000 times
- Increase rate of permeated amount after 360 minutes with respect to normal skin without application of electric potential ([1]; normal skin, application of electric potential (3 V)): 3430.7
- permeated amount of 5-fluorouracil ([1]; normal skin, application of electric potential (3 V), 60 min, donor 1%, pH 8.5): 1.3 μg/cm^2
- permeated amount of 5-fluorouracil ([1]; normal skin, application of electric potential (3 V), 120 min, donor 1%, pH 8.5): 11.7 μg/cm^2
- permeated amount of 5-fluorouracil ([1]; normal skin, application of electric potential (3 V), 180 min, donor 1%, pH 8.5): 44.4 μg/cm^2
- permeated amount of 5-fluorouracil ([1]; normal skin, application of electric potential (3 V), 240 min, donor 1%, pH 8.5): 121.5 μg/cm^2
- permeated amount of 5-fluorouracil ([1]; normal skin, application of electric potential (3 V), 300 min, donor 1%, pH 8.5): 264.9 μg/cm^2
- permeated amount of 5-fluorouracil ([1]; normal skin, application of electric potential (3 V), 360 min, donor 1%, pH 8.5): 480.3 μg/cm^2
- increase of permeability of 5-fluorouracil ([1]; normal skin, electric potential applied (3V), vs without potential): about 3000 times
- permeated amount of 5-fluorouracil ([1]; normal skin, no application of electric potential, 60 min, donor 1%, pH 8.5): 0.0 μg/cm^2
- permeated amount of 5-fluorouracil ([1]; normal skin, no application of electric potential, 120 min, donor 1%, pH 8.5): 0.0 μg/cm^2
- permeated amount of 5-fluorouracil ([1]; normal skin, no application of electric potential, 180 min, donor 1%, pH 8.5): 0.0 μg/cm^2
- permeated amount of 5-fluorouracil ([1]; normal skin, no application of electric potential, 240 min, donor 1%, pH 8.5): 0.0 μg/cm^2
- permeated amount of 5-fluorouracil ([1]; normal skin, no application of electric potential, 300 min, donor 1%, pH 8.5): 0.1 μg/cm^2
- permeated amount of 5-fluorouracil ([1]; normal skin, no application of electric potential, 360 min, donor 1%, pH 8.5): 0.1 μg/cm^2
